# Laboratory results from ChEMBL document CHEMBL1125394, “Analgesic dipeptide derivatives. 7. 3,7-Diamino-2-hydroxyheptanoic acid (DAHHA) containing dipeptide analogues of the analgesic compound H-Lys-Trp(Nps)-OMe” (J Med Chem, 1992).
# pIC50: −log10 of the molar value. Residues, ends and D or L forms follow the SMILES beside them.
# Experiments:
# Mus musculus [1] = species on record: Mus musculus; assay: Analgesic response measured as percentage change in reaction time (dose 5 ug given intracervically) after 30 min in mice; format: functional
# Mus musculus [2] = species on record: Mus musculus; assay: Analgesic response measured as percentage change in reaction time (dose 5 ug given intracervically) after 5 min in mice; format: functional
# Aminopeptidase N [3] = molecular target: T1, Aminopeptidase N (Rattus norvegicus, UniProt P15684); assay: (§1) Compound was evaluated for its inhibitory potency against purified membrane bound rat brain Aminopeptidase M using [3H]Leu-enkephalin as substrate; format: functional
# T1 sequence (P15684 whole entry): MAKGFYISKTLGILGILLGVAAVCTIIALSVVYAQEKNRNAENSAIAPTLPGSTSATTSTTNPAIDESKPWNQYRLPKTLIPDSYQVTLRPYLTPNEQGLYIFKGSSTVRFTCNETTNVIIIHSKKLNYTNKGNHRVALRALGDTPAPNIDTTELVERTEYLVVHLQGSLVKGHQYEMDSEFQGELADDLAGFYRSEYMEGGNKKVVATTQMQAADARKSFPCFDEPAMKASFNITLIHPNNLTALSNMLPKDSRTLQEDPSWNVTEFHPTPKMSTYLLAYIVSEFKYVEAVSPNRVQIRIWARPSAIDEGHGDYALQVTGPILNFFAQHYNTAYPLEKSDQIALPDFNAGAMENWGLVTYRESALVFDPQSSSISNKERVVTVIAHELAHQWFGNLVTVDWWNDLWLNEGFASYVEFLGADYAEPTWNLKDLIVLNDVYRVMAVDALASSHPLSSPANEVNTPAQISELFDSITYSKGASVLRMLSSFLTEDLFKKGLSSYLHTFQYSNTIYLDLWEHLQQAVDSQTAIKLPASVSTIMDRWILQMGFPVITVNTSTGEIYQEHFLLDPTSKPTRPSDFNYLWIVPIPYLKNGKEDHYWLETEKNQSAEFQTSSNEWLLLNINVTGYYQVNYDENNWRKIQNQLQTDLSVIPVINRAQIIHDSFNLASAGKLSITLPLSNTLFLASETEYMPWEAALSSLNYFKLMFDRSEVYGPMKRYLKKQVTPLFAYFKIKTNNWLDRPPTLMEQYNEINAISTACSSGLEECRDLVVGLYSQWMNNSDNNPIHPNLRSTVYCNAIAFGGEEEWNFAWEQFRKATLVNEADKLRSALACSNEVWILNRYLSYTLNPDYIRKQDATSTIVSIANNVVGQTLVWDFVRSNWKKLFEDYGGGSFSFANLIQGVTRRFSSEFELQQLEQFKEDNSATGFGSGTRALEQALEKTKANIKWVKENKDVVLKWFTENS
# Aminopeptidase B [4] = molecular target: T2, Aminopeptidase B (Rattus norvegicus, UniProt O09175); assay: (§2) Compound was evaluated for its inhibitory potency against purified membrane bound rat brain Aminopeptidase B using L-lysine-beta napthylamide as substrate; format: functional
# T2 sequence (O09175 whole entry): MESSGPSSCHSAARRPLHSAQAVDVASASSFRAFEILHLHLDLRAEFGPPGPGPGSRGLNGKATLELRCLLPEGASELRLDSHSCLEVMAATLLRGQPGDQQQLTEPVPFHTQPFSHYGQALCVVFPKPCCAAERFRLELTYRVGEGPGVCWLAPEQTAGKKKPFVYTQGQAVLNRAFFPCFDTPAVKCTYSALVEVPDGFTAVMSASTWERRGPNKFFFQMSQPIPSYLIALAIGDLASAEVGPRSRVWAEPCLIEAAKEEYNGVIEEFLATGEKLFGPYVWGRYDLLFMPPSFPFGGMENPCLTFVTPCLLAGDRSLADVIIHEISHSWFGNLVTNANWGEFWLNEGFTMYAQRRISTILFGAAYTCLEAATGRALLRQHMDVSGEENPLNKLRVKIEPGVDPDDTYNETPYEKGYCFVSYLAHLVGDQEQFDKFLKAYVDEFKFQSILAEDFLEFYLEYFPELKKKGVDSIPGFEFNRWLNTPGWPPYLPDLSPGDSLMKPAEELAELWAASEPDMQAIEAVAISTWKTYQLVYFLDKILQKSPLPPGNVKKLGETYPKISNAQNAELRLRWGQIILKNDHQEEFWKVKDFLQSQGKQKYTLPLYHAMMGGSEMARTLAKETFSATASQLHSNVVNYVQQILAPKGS
# Mus musculus [5] = species on record: Mus musculus; assay: Analgesic response measured as percentage change in reaction time (dose 5 ug given intracervically) after 60 min in mice; format: functional
# Mus musculus [6] = species on record: Mus musculus; assay: Analgesic response measured as percentage change in reaction time (dose 1 ug given intracervically) after 60 min in mice; format: functional
# Aminopeptidase N [7] = molecular target: T1, Aminopeptidase N; assay: Compound was evaluated for its inhibitory potency against purified membrane bound rat brain Aminopeptidase M (AP-M) using [3H]Leu-enkephalin as substrate
# Mus musculus [8] = species on record: Mus musculus; assay: Analgesic response measured as percentage change in reaction time (dose 1 ug given intracervically) after 5 min in mice; format: functional
# Aminopeptidase B [9] = molecular target: T2, Aminopeptidase B; assay: Compound was evaluated for its inhibitory potency against purified membrane bound rat brain Aminopeptidase B (AP-B) using L-lysine-beta napthylamide as substrate
# Mus musculus [10] = species on record: Mus musculus; assay: Analgesic response measured as percentage change in reaction time (dose 1 ug given intracervically) after 30 min in mice; format: functional
# [11] = (§3) Compound was evaluated for its inhibitory potency against purified membrane bound rat brain APs; format: functional
# Mus musculus [12] = species on record: Mus musculus; assay: Analgesic response measured as percentage change in reaction time (dose 10 ug given intracervically) after 30 min in mice; Signs of strong neurotoxicity; format: functional, organism-based
# Mus musculus [13] = species on record: Mus musculus; assay: Analgesic response measured as percentage change in reaction time (dose 10 ug given intracervically) after 60 min in mice; Signs of strong neurotoxicity; format: functional, organism-based
# Mus musculus [14] = species on record: Mus musculus; assay: Analgesic response measured as percentage change in reaction time (dose 10 ug given intracervically) after 5 min in mice; format: functional
# Mus musculus [15] = species on record: Mus musculus; assay: Analgesic response measured as percentage change in reaction time ((dose 1 ug given intracervically) after 60 min in mice; format: functional
# Aminopeptidase N [16] = molecular target: T1, Aminopeptidase N; assay: as §1
# Aminopeptidase B [17] = molecular target: T2, Aminopeptidase B; assay: as §2
# Mus musculus [18] = species on record: Mus musculus; assay: Analgesic response measured as percentage change in reaction time (dose 0.5 ug given intracervically) after 30 min in mice; format: functional
# Mus musculus [19] = species on record: Mus musculus; assay: Analgesic response measured as percentage change in reaction time (dose 0.5 ug given intracervically) after 60 min in mice; format: functional
# Mus musculus [20] = species on record: Mus musculus; assay: Analgesic response measured as percentage change in reaction time (dose 0.5 ug given intracervically) after 5 min in mice; format: functional
# Aminopeptidase B [21] = molecular target: T2, Aminopeptidase B; assay: Inhibitory potency against purified membrane bound rat brain Aminopeptidase B using L-lysine-beta napthylamide as substrate; format: functional
# Aminopeptidase N [22] = molecular target: T1, Aminopeptidase N; assay: Inhibitory potency against purified membrane bound rat brain Aminopeptidase M using [3H]Leu-enkephalin as substrate; format: functional
# Mus musculus [23] = species on record: Mus musculus; assay: Analgesic response measured as percentage change in reaction time (dose given intracervically) after 60 min in mice; format: functional
# Aminopeptidase B [24] = molecular target: T2, Aminopeptidase B; assay: Inhibitory potency against purified membrane bound rat brain Aminopeptidase B (AP-B) using L-lysine-beta napthylamide as substrate
# Aminopeptidase N [25] = molecular target: T1, Aminopeptidase N; assay: Inhibitory potency against purified membrane bound rat brain Aminopeptidase M (AP-M) using [3H]Leu-enkephalin as substrate
# Mus musculus [26] = species on record: Mus musculus; assay: Analgesic response measured as percentage change in reaction time (dose 25 ug given intracervically) after 5 min in mice; format: functional
# Mus musculus [27] = species on record: Mus musculus; assay: Analgesic response measured as percentage change in reaction time (dose 25 ug given intracervically) after 30 min in mice; format: functional
# Mus musculus [28] = species on record: Mus musculus; assay: Analgesic response measured as percentage change in reaction time (dose 100 ug given intracervically) after 60 min in mice; format: functional
# Mus musculus [29] = species on record: Mus musculus; assay: Analgesic response measured as percentage change in reaction time (dose 100 ug given intracervically) after 5 min in mice; format: functional
# Mus musculus [30] = species on record: Mus musculus; assay: Analgesic response measured as percentage change in reaction time (dose 25 ug given intracervically) after 60 min in mice; format: functional
# [31] = as §3; format: tissue-based
# Mus musculus [32] = species on record: Mus musculus; assay: Analgesic response measured as percentage change in reaction time (dose 100 ug given intracervically) after 30 min in mice; format: functional
SMILES,Change (Mus musculus [1]) [%],Change (Mus musculus [2]) [%],pIC50 (Aminopeptidase N [3]),pIC50 (Aminopeptidase B [4]),Change (Mus musculus [5]) [%],pIC50 (Aminopeptidase N [7]),Change (Mus musculus [8]) [%],pIC50 (Aminopeptidase B [9]),Change (Mus musculus [10]) [%],other results
COC(=O)[C@@H](Cc1c[nH]c2ccccc12)NC(=O)[C@H](O)[C@@H](N)CCCCN,-1,22,< 3.00,< 3.00,2,–,–,–,–,–
COC(=O)[C@@H](Cc1c(Sc2ccccc2[N+](=O)[O-])[nH]c2ccccc12)NC(=O)[C@H](O)[C@@H](N)CCCCN,75,59,–,–,55,3.65,19,3.01,21,Change (Mus musculus [6]): -1%
COC(=O)[C@H](Cc1c[nH]c2ccccc12)NC(=O)[C@H](O)[C@H](N)CCCCN,–,–,3.30,< 3.00,–,–,–,–,–,pIC50 [11]: 4.34
COC(=O)[C@@H](Cc1c[nH]c2ccccc12)NC(=O)[C@@H](O)[C@@H](N)CCCCN,10,-1,< 3.00,< 3.00,15,–,–,–,–,–
COC(=O)[C@H](Cc1c(Sc2ccccc2[N+](=O)[O-])[nH]c2ccccc12)NC(=O)[C@@H](O)[C@H](N)CCCCN,80,146,–,–,74,5.15,124,4.00,63,Change (Mus musculus [12]): Signs of strong neurotoxicity; Change (Mus musculus [13]): Signs of strong neurotoxicity; Change (Mus musculus [14]): 243%; Change (Mus musculus [15]): 47%
COC(=O)[C@@H](Cc1c(Sc2ccccc2[N+](=O)[O-])[nH]c2ccccc12)NC(=O)C(O)[C@H](N)CCCCN (some centres undefined),56,80,–,–,37,4.04,19,3.31,13,Change (Mus musculus [6]): -2%
COC(=O)[C@H](CC(C)C)NC(=O)[C@@H](O)[C@H](N)CCCCN,21,<62,–,–,23,–,–,–,–,pIC50 (Aminopeptidase N [16]): 3.70; pIC50 (Aminopeptidase B [17]): 3.32
COC(=O)[C@H](Cc1c(Sc2ccccc2[N+](=O)[O-])[nH]c2ccccc12)NC(=O)[C@@H](N)CCCCN,–,–,3.58,3.40,–,–,<130,–,<60,Change (Mus musculus [18]): <40%; pIC50 [11]: 4.74; Change (Mus musculus [6]): 35%; Change (Mus musculus [19]): 20%; Change (Mus musculus [20]): <80%
NCCCC[C@H](N)C(=O)N[C@@H](Cc1c[nH]c2ccccc12)C(=O)O (H-Lys-Trp-OH),–,–,–,–,–,< 3.00,–,< 3.00,–,–
COC(=O)[C@H](Cc1c[nH]c2ccccc12)NC(=O)[C@@H](O)[C@@H](N)CCCCN.COC(=O)[C@H](Cc1c[nH]c2ccccc12)NC(=O)[C@H](O)[C@@H](N)CCCCN,19,26,< 3.00,3.30,-4,–,–,–,–,–
COC(=O)[C@@H](Cc1c[nH]c2ccccc12)NC(=O)[C@@H](O)[C@H](N)CCCCN.COC(=O)[C@@H](Cc1c[nH]c2ccccc12)NC(=O)[C@H](O)[C@H](N)CCCCN,1,10,–,–,5,–,–,–,–,pIC50 (Aminopeptidase B [21]): < 3.00; pIC50 (Aminopeptidase N [22]): 3.08
COC(=O)[C@H](CC(C)C)NC(=O)[C@@H](O)[C@@H](N)CCCCN.COC(=O)[C@H](CC(C)C)NC(=O)[C@H](O)[C@@H](N)CCCCN,10,-1,–,–,15,< 3.00,–,3.30,–,–
COC(=O)[C@H](Cc1c[nH]c2ccccc12)NC(=O)[C@@H](O)[C@H](N)CCCCN.Cl.Cl,17,<60,4.99,< 3.00,–,–,–,–,–,pIC50 [11]: 6.68; Change (Mus musculus [23]): 14%
COC(=O)[C@H](Cc1c(Sc2ccccc2[N+](=O)[O-])[nH]c2ccccc12)NC(=O)C(O)[C@@H](N)CCCCN (some centres undefined),64,75,–,–,43,–,25,–,15,Change (Mus musculus [6]): -8%; pIC50 (Aminopeptidase B [24]): 3.23; pIC50 (Aminopeptidase N [25]): 3.07
CC(C)C[C@H](NC(=O)[C@@H](O)[C@H](N)Cc1ccccc1)C(=O)O [UBENIMEX],–,–,–,–,–,–,–,–,–,pIC50 (Aminopeptidase N [16]): 4.71; Change (Mus musculus [26]): 26%; Change (Mus musculus [27]): 3%; Change (Mus musculus [28]): 59%; Change (Mus musculus [29]): 11%; Change (Mus musculus [30]): -3%; pIC50 (Aminopeptidase B [17]): 5.22; pIC50 [31]: 6.52; Change (Mus musculus [32]): 41%
